According to patent US20240033370A1, “ANTI-PD-L1 IMMUNOCONJUGATES, AND USES THEREOF” (BOLT BIOTHERAPEUTICS, INC., priority 2020, published 2024):
pEC50: −log10 of the molar value.

Assays:
human TLR7 = human TLR7 (Homo sapiens (Human), UniProt Q9NYK1); test: HEK293 NFKB reporter assay, human TLR7; type: cell-based; conditions: HEK293 reporter cells expressing human TLR7; read-out: HEK293 hTLR7 EC50
Procedure: (§1) Each compound was synthesized, purified, and characterized by mass spectrometry and shown to have the mass indicated. Additional experimental procedures are found in the Examples. Activity against HEK293 NFKB reporter cells expressing human TLR7 or human TLR8 was measured according to Example 202.
(§2) HEK293 reporter cells expressing human TLR7 or human TLR8 were purchased from Invivogen and vendor protocols were followed for cellular propagation and experimentation. Briefly, cells were grown to 80-85% confluence at 5% CO2 in DMEM supplemented with 10% FBS, Zeocin, and Blasticidin. Cells were then seeded in 96-well flat plates at 4×10^4 cells/well with substrate containing HEK detection medium and immunostimulatory molecules. Activity was measured using a plate reader at 620-655 nm wavelength.

human TLR8 = human TLR8 (Homo sapiens (Human), UniProt Q9NR97); test: HEK293 NFKB reporter assay, human TLR8; type: cell-based; conditions: HEK293 reporter cells expressing human TLR8; read-out: HEK293 hTLR8 EC50
Procedure: as §1, §2

Chain of human TLR8 (Q9NR97 27-1041): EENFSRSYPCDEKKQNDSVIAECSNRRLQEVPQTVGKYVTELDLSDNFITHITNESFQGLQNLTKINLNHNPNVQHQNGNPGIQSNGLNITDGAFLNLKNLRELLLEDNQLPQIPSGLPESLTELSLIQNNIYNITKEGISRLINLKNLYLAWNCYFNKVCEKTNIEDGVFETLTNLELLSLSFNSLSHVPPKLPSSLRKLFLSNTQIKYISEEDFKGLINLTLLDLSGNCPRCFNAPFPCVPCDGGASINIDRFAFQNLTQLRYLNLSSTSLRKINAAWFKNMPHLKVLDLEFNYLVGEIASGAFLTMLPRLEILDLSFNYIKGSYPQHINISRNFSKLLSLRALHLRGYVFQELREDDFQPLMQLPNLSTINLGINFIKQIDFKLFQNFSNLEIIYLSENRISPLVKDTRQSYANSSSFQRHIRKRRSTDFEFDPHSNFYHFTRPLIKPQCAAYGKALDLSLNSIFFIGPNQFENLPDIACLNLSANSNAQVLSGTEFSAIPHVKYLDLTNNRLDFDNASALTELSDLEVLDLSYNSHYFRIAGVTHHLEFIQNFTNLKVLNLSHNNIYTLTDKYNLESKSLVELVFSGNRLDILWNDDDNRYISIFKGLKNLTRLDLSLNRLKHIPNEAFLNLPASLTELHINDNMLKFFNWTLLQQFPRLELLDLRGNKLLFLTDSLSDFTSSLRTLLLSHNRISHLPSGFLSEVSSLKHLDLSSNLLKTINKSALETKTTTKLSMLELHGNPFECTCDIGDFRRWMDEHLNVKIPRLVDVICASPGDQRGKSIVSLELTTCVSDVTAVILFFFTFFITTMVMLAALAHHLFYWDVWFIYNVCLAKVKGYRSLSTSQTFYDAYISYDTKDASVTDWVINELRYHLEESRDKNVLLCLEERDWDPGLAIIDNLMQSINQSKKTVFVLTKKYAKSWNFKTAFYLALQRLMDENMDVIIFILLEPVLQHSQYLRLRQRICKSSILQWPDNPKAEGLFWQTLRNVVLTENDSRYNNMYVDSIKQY
Chain of human TLR7 (Q9NYK1 27-1049): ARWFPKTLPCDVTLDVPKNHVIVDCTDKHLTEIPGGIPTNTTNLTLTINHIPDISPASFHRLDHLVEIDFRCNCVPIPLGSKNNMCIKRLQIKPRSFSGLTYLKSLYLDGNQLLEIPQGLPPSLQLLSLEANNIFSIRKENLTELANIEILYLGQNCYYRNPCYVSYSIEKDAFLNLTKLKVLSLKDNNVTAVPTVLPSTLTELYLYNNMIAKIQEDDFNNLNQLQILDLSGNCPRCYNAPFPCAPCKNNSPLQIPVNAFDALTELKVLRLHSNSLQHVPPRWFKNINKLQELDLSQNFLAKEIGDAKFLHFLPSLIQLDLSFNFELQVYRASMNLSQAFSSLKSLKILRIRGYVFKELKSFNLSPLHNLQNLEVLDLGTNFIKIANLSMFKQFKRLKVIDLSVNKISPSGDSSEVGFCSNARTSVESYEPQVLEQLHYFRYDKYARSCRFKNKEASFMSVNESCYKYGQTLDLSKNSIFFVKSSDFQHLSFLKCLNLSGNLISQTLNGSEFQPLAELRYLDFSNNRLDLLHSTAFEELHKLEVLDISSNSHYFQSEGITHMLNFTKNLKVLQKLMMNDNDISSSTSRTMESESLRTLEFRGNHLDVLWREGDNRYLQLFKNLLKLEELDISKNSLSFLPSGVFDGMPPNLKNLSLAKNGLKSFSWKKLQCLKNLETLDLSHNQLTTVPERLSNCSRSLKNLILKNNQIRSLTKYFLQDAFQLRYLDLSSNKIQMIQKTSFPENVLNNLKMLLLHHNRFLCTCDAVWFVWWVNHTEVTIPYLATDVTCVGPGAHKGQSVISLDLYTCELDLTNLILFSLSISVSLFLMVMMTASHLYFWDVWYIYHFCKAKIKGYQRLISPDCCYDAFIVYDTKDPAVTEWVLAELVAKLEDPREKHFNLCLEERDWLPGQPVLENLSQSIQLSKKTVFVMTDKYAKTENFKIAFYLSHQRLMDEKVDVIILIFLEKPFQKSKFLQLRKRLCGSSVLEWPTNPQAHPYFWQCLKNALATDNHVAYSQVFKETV

| SMILES | pEC50 (human TLR7) | pEC50 (human TLR8) |
| --- | --- | --- |
| CCCN(OCC)C(=O)C1=Cc2ccc(-c3ncc(CN)cn3)cc2N=C(N)C1 [CycBz-10] | 5.05 | – |
| CCCN(OCCNC(=O)NC1COC1)C(=O)C1=Cc2ccc(-c3cnc(CN)nc3)cc2N=C(N)C1 [CycBz-17] | 5.05 | 5.05 |
| CCCN(CC1CNC(=O)O1)C(=O)C1=Cc2ccc(-c3cnc(CN)nc3)cc2N=C(N)C1 (centres unmarked) [CycBz-25] | 5.05 | – |
| CCCN(CCCO)C(=O)C1=Cc2ccc(-c3cnc(CN)nc3)cc2N=C(N)C1 [CycBz-26] | 5.05 | 5.05 |
| CCCN(CC1CNC(=O)CO1)C(=O)C1=Cc2ccc(-c3cnc(CN)nc3)cc2N=C(N)C1 (centres unmarked) [CycBz-42] | 5.05 | 5.05 |
| CCCN(OCCO)C(=O)C1=Cc2ccc(-c3cncc(S(=O)(=O)N4CC(CN)C4)c3)cc2N=C(N)C1 [CycBz-43] | 5.05 | – |
| CCCN(C(=O)C1=Cc2ccc(-c3cnc(CN)nc3)cc2N=C(N)C1)[C@H]1C[C@H](NC(=O)OC2CCC2)C1 [CycBz-44] | 5.05 | – |
| CCCN(OCC1COC(=O)N1)C(=O)C1=Cc2ccc(-c3cnc(CN)nc3)cc2N=C(N)C1 (centres unmarked) [CycBz-46] | 5.05 | – |
| CCCN(OCC)C(=O)C1=Cc2ccc(-c3cc(CN)ncn3)cc2N=C(N)C1 [CycBz-48] | 5.05 | 5.66 |
| CCCN(OCC(F)(F)F)C(=O)C1=Cc2ccc(-c3cccc(S(=O)(=O)N4CC(CN)C4)c3)cc2N=C(N)C1 [CycBz-49] | 5.41 | 6.34 |
| CCCN(OCC)C(=O)C1=Cc2ccc(-c3cccc(S(=O)(=O)N4CC(CNC(=O)C5CCNCC5)C4)c3)cc2N=C(N)C1 [CycBz-51] | 5.05 | 5.38 |
| CCCN(OCC)C(=O)C1=Cc2ccc(-c3ccc(C(=O)OC)cc3)cc2N=C(N)C1 [CycBz-52] | 5.24 | 6.20 |
| CCCN(OCC)C(=O)C1=Cc2ccc(-c3ccc(C(=O)N4CCC(N)C4)cc3)cc2N=C(N)C1 (centres unmarked) [CycBz-54] | 5.51 | 6.07 |
| CCCN(OCC)C(=O)C1=Cc2ccc(-c3ccc(C(=O)N4CCC(NC(=O)OC(C)(C)C)C4)cc3)cc2N=C(N)C1 (centres unmarked) [CycBz-55] | 5.43 | 6.42 |
| CCCN(CCCO)C(=O)C1=Cc2ccc(-c3cccc(S(=O)(=O)N4CC(CNC(=O)OC(C)(C)C)C4)c3)cc2N=C(N)C1 [CycBz-58] | 5.15 | 6.43 |
| CCCN(OCC)C(=O)C1=Cc2ccc(-c3ccc(C(=O)N4CCC[C@H]4C(=O)OC)cc3)cc2N=C(N)C1 [CycBz-59] | 7.33 | 8.22 |
| CCCN(OCCNC(=O)OC1CCC1)C(=O)C1=Cc2ccc(-c3cccc(S(=O)(=O)N4CC(CN)C4)c3)cc2N=C(N)C1 [CycBz-60] | 6.13 | 6.79 |
| CCCN(CCCCO)C(=O)C1=Cc2ccc(-c3cccc(S(=O)(=O)N4CC(CN)C4)c3)cc2N=C(N)C1 [CycBz-62] | 5.05 | 5.33 |
| CCCN(CCCO)C(=O)C1=Cc2ccc(-c3cccc(S(=O)(=O)N4CC(CN)C4)c3)cc2N=C(N)C1 [CycBz-63] | 5.05 | 5.44 |
| CCCN(OCC)C(=O)C1=Cc2ccc(-c3ccc(C(=O)N4CCC[C@@H]4C(=O)OC)cc3)cc2N=C(N)C1 [CycBz-64] | 5.46 | 7.01 |
| CCCN(CCCNC(=O)OC1CCC1)C(=O)C1=Cc2ccc(-c3cccc(S(=O)(=O)N4CC(CN)C4)c3)cc2N=C(N)C1 [CycBz-65] | 5.64 | 5.81 |
| CCCN(OCC)C(=O)C1=Cc2ccc(-c3ccc(C(=O)N4CCCC4)cc3)cc2N=C(N)C1 [CycBz-67] | 5.52 | 6.59 |
| CCCN(CCO)C(=O)C1=Cc2ccc(-c3cccc(S(=O)(=O)N4CC(CN)C4)c3)cc2N=C(N)C1 [CycBz-68] | 5.05 | 5.31 |
| CCCN(CCCNC(N)=O)C(=O)C1=Cc2ccc(-c3cccc(S(=O)(=O)N4CC(CN)C4)c3)cc2N=C(N)C1 [CycBz-70] | 5.05 | 5.05 |
| CCCN(OCC)C(=O)C1=Cc2ccc(-c3ccc(C(=O)N[C@@H](C)C(=O)OC(C)(C)C)cc3)cc2N=C(N)C1 [CycBz-74] | 5.72 | 7.92 |
| CCCN(OCC)C(=O)C1=Cc2ccc(-c3ccc(C(=O)N[C@H](C)C(=O)OC(C)(C)C)cc3)cc2N=C(N)C1 [CycBz-75] | 5.32 | 7.07 |
